Measurements published in paper PMC7298650 (iScience, 2020).
Like-named read-outs stand apart in the source and are kept apart here.

Tests used:
[1] = molecular target: T1, insulin receptor (Homo sapiens, UniProt P06213); assay: surface plasmon resonance; assay type: binding
[2] = molecular target: T1, insulin receptor; assay: surface plasmon resonance; assay type: binding; remark: listed apart in the source

T1 sequence (P06213 28-758): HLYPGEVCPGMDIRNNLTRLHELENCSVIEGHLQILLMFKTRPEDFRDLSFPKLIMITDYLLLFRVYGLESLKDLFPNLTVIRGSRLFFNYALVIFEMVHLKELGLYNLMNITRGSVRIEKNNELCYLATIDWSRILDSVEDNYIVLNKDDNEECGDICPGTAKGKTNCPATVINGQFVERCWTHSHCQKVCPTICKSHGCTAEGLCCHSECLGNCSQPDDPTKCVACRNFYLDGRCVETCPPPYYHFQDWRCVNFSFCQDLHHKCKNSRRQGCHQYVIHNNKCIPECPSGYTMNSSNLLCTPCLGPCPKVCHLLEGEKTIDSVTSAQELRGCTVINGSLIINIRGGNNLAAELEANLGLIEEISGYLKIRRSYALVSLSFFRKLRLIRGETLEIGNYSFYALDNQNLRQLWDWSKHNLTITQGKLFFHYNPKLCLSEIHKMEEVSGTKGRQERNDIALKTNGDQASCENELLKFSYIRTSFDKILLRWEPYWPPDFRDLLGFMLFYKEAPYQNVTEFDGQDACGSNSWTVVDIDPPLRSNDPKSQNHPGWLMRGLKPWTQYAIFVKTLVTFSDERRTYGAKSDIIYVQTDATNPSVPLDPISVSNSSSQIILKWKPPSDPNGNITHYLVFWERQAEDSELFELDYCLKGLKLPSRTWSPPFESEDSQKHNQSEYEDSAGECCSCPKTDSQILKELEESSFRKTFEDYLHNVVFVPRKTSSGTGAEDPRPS
T1 sequence (P06213 763-956): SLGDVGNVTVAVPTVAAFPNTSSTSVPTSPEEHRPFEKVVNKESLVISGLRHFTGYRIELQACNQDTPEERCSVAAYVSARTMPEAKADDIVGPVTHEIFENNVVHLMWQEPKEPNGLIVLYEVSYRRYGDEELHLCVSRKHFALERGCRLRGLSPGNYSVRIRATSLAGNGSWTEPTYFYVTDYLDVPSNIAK

Kd [1] [µM]	Kd [2] [µM]	SMILES
~84		CN(C)C(=N)N=C(N)N [Metformin]
	~14	O=c1c2ccccc2nc2n1CCc1c-2[nH]c2ccccc12 [Rut-0, Rutaecarpine]
